Measurements: patent publication US20180289692A1, “TLR MODULATORS AND METHODS OF USE” (CELGENE CORPORATION, priority 2015, published 2018)
Oligonucleotides are written 5' to 3', each unit as a sugar letter and its base; * is a phosphorothioate linkage, no mark a phosphodiester; rarer units and linkages stand in square brackets, end groups in braces. Plain capitals give the bases only. d = 2'-deoxy (DNA)

Experiments:
[1] = biological target: T1, TLR8 (Homo sapiens, UniProt Q9NR97); assay: TLR8 activation in HEK Blue TLR8 reporter cell line after lipo-transfection; format: cell-based; conditions: HEK Blue TLR8 reporter cells, Lipofectamine transfection, FIG. 24
T1 construct: host or cells: HEK Blue TLR8 reporter cells (engineered HEK293, NF-κB inducible SEAP)
T1 sequence (Q9NR97 27-1041): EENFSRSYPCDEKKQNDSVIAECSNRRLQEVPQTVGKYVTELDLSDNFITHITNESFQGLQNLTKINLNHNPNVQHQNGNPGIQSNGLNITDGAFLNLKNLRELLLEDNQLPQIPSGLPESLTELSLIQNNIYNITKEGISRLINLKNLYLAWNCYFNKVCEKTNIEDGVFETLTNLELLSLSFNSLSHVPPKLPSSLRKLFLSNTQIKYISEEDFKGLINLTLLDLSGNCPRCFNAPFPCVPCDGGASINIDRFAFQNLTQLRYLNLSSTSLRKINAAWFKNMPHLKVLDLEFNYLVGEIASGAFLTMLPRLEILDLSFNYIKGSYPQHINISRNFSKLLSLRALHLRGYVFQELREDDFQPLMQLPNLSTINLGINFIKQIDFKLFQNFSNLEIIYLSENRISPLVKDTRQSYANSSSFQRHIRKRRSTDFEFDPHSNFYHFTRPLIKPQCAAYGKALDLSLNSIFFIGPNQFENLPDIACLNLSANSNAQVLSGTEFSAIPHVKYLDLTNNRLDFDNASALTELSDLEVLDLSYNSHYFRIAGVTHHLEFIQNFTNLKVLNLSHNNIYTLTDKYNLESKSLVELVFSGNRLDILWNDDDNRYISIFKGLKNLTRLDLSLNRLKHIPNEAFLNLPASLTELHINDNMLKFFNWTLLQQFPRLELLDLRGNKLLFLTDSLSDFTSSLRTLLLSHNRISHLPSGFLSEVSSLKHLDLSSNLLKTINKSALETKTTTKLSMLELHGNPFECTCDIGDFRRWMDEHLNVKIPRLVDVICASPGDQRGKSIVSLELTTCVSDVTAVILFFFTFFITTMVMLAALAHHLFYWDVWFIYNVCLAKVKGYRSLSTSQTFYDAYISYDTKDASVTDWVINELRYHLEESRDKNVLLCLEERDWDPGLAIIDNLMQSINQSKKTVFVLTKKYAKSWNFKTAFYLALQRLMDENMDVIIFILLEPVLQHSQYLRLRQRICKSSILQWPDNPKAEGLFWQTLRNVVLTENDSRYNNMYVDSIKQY
Procedure: Briefly, the reporter cells were engineered HEK293 cells that express a TLR8 gene and are specially designed for monitoring activity of NF-kβ inducible SEAP (secreted embryonic alkaline phosphatase). Reporter cells were seeded at a density of around 60000/well in 96 wells plates for 72 hrs. Growth medium was removed and Lipofectamine™ (Life Technologies, Foster City, Calif.) 2000/oligonucleotide complex and agonist was added and incubated for 6 hrs. The complex was removed and Detection Medium was added for 16 hrs of incubation. Optical density of SEAP was measured by spectrophotometer at […]. […] See also, Table 7.

[2] = system: human pDCs; assay: Surface ICOS-L and PD-L1 expression in CCR6+CD123+ human pDCs by FACS; format: cell-based; conditions: human pDCs, 24 hrs, FIG. 2B
Procedure: To evaluate surface ICOS-L, PD-L1 expression in the CCR6+CD123+ pDC cell subsets, PBMCs were incubated on ice in the presence of Fc-Block (BD Pharmingen) for 20 minutes, washed, and incubated with antibodies specific for surface molecules or isotype-matched control mAbs. APC-labeled anti-human ICOS-L mAb were purchased from BioLegend, PECY-7-labeled anti-human CCR6 mAb, FITC-labeled anti-human PD-L1 mAb and PerCP-Cy5.5 labeled anti-human CD123 mAb were purchased from BD Biosciences. The stained cells were then subjected to FACS (FACSCanto, BD Biosciences) using FACSDiva software. FACS analysis was performed using FlowJo software. Single, viable cells in the CCR6+CD123+ pDC gates were analyzed. The flow cytometric results are expressed as the percentage and MFI of ICOSL-, or PD-L1-expressing cells in each gate.
pDCs were isolated and ICOS-L expression was analyzed as described in Example 2.

[3] = system: human purified pDCs; assay: IFN-α secretion from purified human pDCs by ELISA; format: cell-based
From the text: By contrast, ODN2006 induced IFN-α secretion from purified and matured pDCs, and ODN150 and ODN7040 induced IFN-α secretion from matured pDCs.

[4] = system: human PBMCs; assay: IL-1β secretion from human PBMCs by ELISA (inflammasome activation); format: cell-based; conditions: 24 hours, FIG. 15
[5] = system: canonical NF-κB promoter reporter; assay: Canonical NF-κB promoter reporter construct in RAW264.7 macrophage cells (FIG. 10); format: cell-based, mouse; conditions: 24 hrs
Procedure: Mouse RAW264.7 macrophage cells containing a reporter construct driven by a canonical NF-κB promoter were plated in 96-well plates at 50,000 cells/well. […] The supernatant was harvested and tested for optical density.

[6] = system: human pDCs; assay: Intracellular IL-10, TGF-β1 and IDO expression in CCR6+CD123+ human pDCs by FACS; format: cell-based; conditions: 24 hrs, FIG. 2A
From the text: To evaluate intracellular IL-10, TGFβ 1 and IDO expression in human pDCs, the cells were first stained with PECY-7-labeled anti-human CCR6 mAb (BD Biosciences), PerCP-Cy5.5 labeled anti-human CD123 mAb (BD Biosciences). Stained cells were then fixed and permeabilized using a Cytofix/Cytoperm kit (BD Biosciences) according to the manufacturer's instructions and stained with PE-labeled anti-human IDO (Biolegend), APC-labeled anti-human IL-10 mAb and FITC-labeled anti-human TGF-β1 (BD Biosciences), or isotype-matched control mAbs. The stained cells were acquired by FACSCanto using the FACSDiva software. FACS analysis was performed using FlowJo software. Single, viable cells in the CCR6+CD123+ pDC gates were analyzed. The flow cytometric results are expressed as the percentage and MFI of IL-10-, TGF-β1- or IDO-expressing cells in each gate. Results are expressed as the mean±SEM of cells quantified.
IL10 was alternatively measured in cellular supernatants by ELISA using standard protocols.

ODN150: 5′-G*G*A*ACAGTTCGTCCAT*G*G*C-3′, PO except * = PS; antisense to p65 of NF-kB mRNA; tested clinically for ulcerative colitis (DNA dG*dG*dA*dAdCdAdGdTdTdCdGdTdCdCdAdT*dG*dG*dC)
TLR8 activation [1]: substantially induced
PD-L1 protein induction [2]: can induce
IFN-α secretion from pDCs matured by IL-3 treatment ([3]; 3 μM, 48 hours, ELISA, FIG. 18): induced
IFN-α ([3]; pDC, relative strength, Table 6): ↑ ↑
IL-1β induction [4]: did not induce
activation of the NF-κB construct ([5]; 0.1-100 μM): Moderate activation
ODN concentration at which activation of the NF-κB construct was observed [5]: 100 µM
TGF-β1 protein induction [6]: can induce
